# Results published in patent EP0315097A2, “Acyl labdane derivatives, process for their preparation and their use as medicines” (HOECHST AKTIENGESELLSCHAFT, priority 1987, dated 1989).
# What was measured:
# Katze = experiment: Blood pressure lowering in the anaesthetised cat, femoral artery pressure; format: in vivo; conditions: for Abfall d. BD: Chloralose-Narkose; for Dauer: duration of the blood pressure lowering effect
# Excerpt: 3 bis 4 kg schwere Katzen beider Geschlechter werden mit Äther anästhesiert und unter Chloralose-Narkose (70 mgkg i.v.) gehalten. Sowohl die Oberschenkel-Arterie als auch die -Vene werden zur Aufzeichnung des Blutdrucks bzw. zur Verabreichung der Arzneimittel mit Kanülen versehen. Der Blutdruck in der Oberschenkelarterie wird über einen Druckaufnehmer Statham P 23 Db auf einem Nihon-Kohden-Schreiber für physiologische Zwecke ausgezeichnet. Die zu prüfende Verbindung wird in destilliertem Wasser gelöst und intravenös verabreicht. Der Blutdruckabfall und die Dauer der blutdrucksenkenden Wirkung werden notiert.
# (§1) Die bei diesem Modell für repräsentative erfindungsgemäße Verbindungen erhaltenen Ergebnisse sind in der nachfolgenden Tabelle aufgeführt: […]
# Meerschweinchenvorhof = experiment: Positive inotropic activity, contraction force of isolated electrically stimulated guinea pig atrium; parameters: species or system Meerschweinchen; conditions: isolated left and right atria, Ringer-Lösung, 32 C, contraction force recorded 7 bis 10 Minuten
# Excerpt: Dafür wurde folgende Methode angewandt.
# 400 g schwere Meerschweinchen beider Geschlechter werden getötet, das Herz entnommen und bei Raumtemperatur in Ringer-Lösung eingebracht. Sowohl der linke als auch der rechte Vorhof werden dann isoliert, an einem Organhalter befestigt und in eine Ringer-Lösung enthaltendes, bei einer Temperatur von 32 C gehaltenes Bad eingebracht. In das Organbad läßt man ein Gemisch von 95 % O2 und 5 % C02 einperlen. Dann stimuliert man den Vorhof elektrisch. Die zu prüfende erfindungsgemäße Verbindung wird in Wasser zu einer Lösung bekannter Konzentration gelöst und dem Bad zugesetzt. Die Kontraktionskraft des Vorhofs wird 7 bis 10 Minuten lang über einen isometrischen Dehnungsmeßstreifen auf einem 4-Kanal-Schreiber von Nihon Kohden registriert. Die Aktivität wird gemäß den erhaltenen Daten als ECso ausgedrückt.
# Die bei diesem Modell für repräsentative erfindungsgemäße Verbindungen erhaltenen Ergebnisse sind in der nachfolgenden Tabelle aufgeführt.
# wachen Kaninchen = experiment: Intraocular pressure (IOD) measurement in the conscious rabbit, Schioetz tonometer; format: in vivo; conditions: Dosis Prozent 2 (2 %ige Lösung, 100 µl instilled into one eye); for IOD-senkende Wirkung % Abnahme des IOD: decrease calculated from the baseline value; for IOD-senkende Wirkung Dauer: duration of the IOD-lowering effect
# Excerpt: Für diesen Versuch werden 2 bis 3 kg schwere Kaninchen beider Geschlechter verwendet. Der intraokulare Druck (IOD) wird mit einem Schioetz-Tonometer nach Hornhaut-Anästhesie mit 2 %iger Novocainlösung gemessen. Zur Herstellung einer 2 %igen Lösung wird eine erfindungsgemäße Verbindung unter Verwendung der stöchiometrischen Menge 0,1 n-HCI, bzw. deren Salz direkt in Wasser gelöst. Nach Ermittlung des Ausgangswertes werden 100 u.l der Lösung der Testverbindung in eines der Augen, das Vehikel in das andere Auge instilliert. Der IOD wird in bestimmten Zeitabständen, d.h. 0,5; 1, 2, 3, 4 und 5 Stunden gemessen. Die prozentuale Abnahme des IOD wird anhand des Ausgangswertes berechnet.
# as §1
compound,measurement,setting,value
"C=C[C@@]1(C)CC(=O)[C@]2(O)[C@@]3(C)[C@@H](O)CCC(C)(C)[C@@H]3[C@H](OC(=O)CCN3CCCCC3)[C@H](OC(=O)OCC)[C@@]2(C)O1 [R6=[drawing], R7=COOC2H5 (the 5th table, row 2)]",Abfall d. BD,Katze; Dosis 1 mg/kg intravenös,40
same,Dauer,Katze; Dosis 1 mg/kg intravenös,>20 min
"C=C[C@@]1(C)CC(=O)[C@]2(O)[C@@]3(C)[C@@H](O)CCC(C)(C)[C@@H]3[C@H](OC(=O)CN3CCCCC3)[C@H](OC(=O)N(CC)CC)[C@@]2(C)O1 [R6=[drawing], R7=CON(C2H5)2 (the 5th table, row 5)]",Abfall d. BD,Katze; Dosis 1 mg/kg intravenös,50
same,Dauer,Katze; Dosis 1 mg/kg intravenös,20 min
"C=C[C@@]1(C)CC(=O)[C@]2(O)[C@@]3(C)[C@@H](O)CCC(C)(C)[C@@H]3[C@H](OC(=O)CN3CCCCC3)[C@H](OC(=O)OCC)[C@@]2(C)O1 [R6=COCH2N[drawing], R7=COOC2H5]",EC50,Meerschweinchenvorhof,1.6 µg/mL
"C=C[C@@]1(C)CC(=O)[C@]2(O)[C@@]3(C)[C@@H](O)CCC(C)(C)[C@@H]3[C@H](OC(=O)CCN3CCCCC3)[C@H](OC(=O)OCC)[C@@]2(C)O1 [R6=[drawing], R7=COOC2H5 (the 4th table, row 2)]",IOD-senkende Wirkung % Abnahme des IOD,wachen Kaninchen,20%
same,IOD-senkende Wirkung Dauer,wachen Kaninchen,300 min
"C=C[C@@]1(C)CC(=O)[C@]2(O)[C@@]3(C)[C@@H](O)CCC(C)(C)[C@@H]3[C@H](OC(=O)CCN3CCCCC3)[C@H](OC(=O)N(CC)CC)[C@@]2(C)O1 [R6=[drawing], R7=CON(C2H5)2 (the 5th table, row 3)]",Abfall d. BD,Katze; Dosis 1 mg/kg intravenös,20
same,Dauer,Katze; Dosis 1 mg/kg intravenös,60 min
"C=C[C@@]1(C)CC(=O)[C@]2(O)[C@@]3(C)[C@@H](O)CCC(C)(C)[C@@H]3[C@H](OC(=O)CN3CCCCC3)[C@H](OC(=O)OCC)[C@@]2(C)O1 [R6=[drawing], R7=COOC2H5 (the 4th table, row 4)]",IOD-senkende Wirkung % Abnahme des IOD,wachen Kaninchen,0%
"C=C[C@@]1(C)CC(=O)[C@]2(O)[C@@]3(C)[C@@H](O)CCC(C)(C)[C@@H]3[C@H](OC(=O)CN3CCCCC3)[C@H](OC(=O)OCC)[C@@]2(C)O1 [R6=[drawing], R7=COOC2H5 (the 5th table, row 4)]",Abfall d. BD,Katze; Dosis 3 mg/kg intravenös,60
same,Dauer,Katze; Dosis 3 mg/kg intravenös,60 min
"C=C[C@@]1(C)CC(=O)[C@]2(O)[C@@]3(C)[C@@H](O)CCC(C)(C)[C@@H]3[C@H](OC(=O)CN3CCCCC3)[C@H](OC(=O)N(CC)CC)[C@@]2(C)O1 [R6=[drawing], R7=CON(C2H5)2 (the 4th table, row 5)]",IOD-senkende Wirkung % Abnahme des IOD,wachen Kaninchen,20%
same,IOD-senkende Wirkung Dauer,wachen Kaninchen,420 min
"C=C[C@@]1(C)CC(=O)[C@]2(O)[C@@]3(C)[C@@H](O)CCC(C)(C)[C@@H]3[C@H](OC(=O)CCN3CCCCC3)[C@H](OC(=O)N(CC)CC)[C@@]2(C)O1 [R6=[drawing], R7=CON(C2H5)2 (the 4th table, row 3)]",IOD-senkende Wirkung % Abnahme des IOD,wachen Kaninchen,25%
same,IOD-senkende Wirkung Dauer,wachen Kaninchen,360 min
"C=C[C@@]1(C)CC(=O)[C@]2(O)[C@@]3(C)[C@@H](O)CCC(C)(C)[C@@H]3[C@H](OC(=O)CN3CCCCC3)[C@H](OC(=O)N(CC)CC)[C@@]2(C)O1 [R6=COCH2N[drawing], R7=CON(C2H5)2]",EC50,Meerschweinchenvorhof,0.44 µg/mL
"C=C[C@@]1(C)CC(=O)[C@]2(O)[C@@]3(C)[C@@H](O)CCC(C)(C)[C@@H]3[C@H](OC(=O)CCN3CCCCC3)[C@H](OC(=O)N(CC)CC)[C@@]2(C)O1 [R6=CO(CH2)2N[drawing], R7=CON(C2H5)2]",EC50,Meerschweinchenvorhof,0.79 µg/mL
